Measurements: ChEMBL document CHEMBL4819087, “Identification and optimization of 3-bromo-N'-(4-hydroxybenzylidene)-4-methylbenzohydrazide derivatives as mTOR inhibitors that induce autophagic cell death and apoptosis in triple-negative breast cancer” (Eur J Med Chem, 2021)
Activity calls are given as the source filed them. The calls are words filed in the database; no cut-off is given here.

Assays:
[1] = target: T1, Serine/threonine-protein kinase mTOR (Homo sapiens, UniProt P42345); experiment: Inhibition of mTOR (unknown origin)
[2] = target: T1, Serine/threonine-protein kinase mTOR; experiment: Inhibition of mTOR in human MDA-MB-231 cells assessed as reduction in phosphorylation of mTOR at Ser2448 residue at 0.5 to 2 uM after 24 hrs by Western blot analysis; format: cell-based; details: dose 0.5-2 µM
[3] = target: T1, Serine/threonine-protein kinase mTOR; experiment: Inhibition of mTOR in human MDA-MB-231 cells assessed as reduction in total 4EBP1 protein level at 0.5 to 2 uM after 24 hrs by Western blot analysis; format: cell-based; details: dose 0.5-2 µM
[4] = target: T1, Serine/threonine-protein kinase mTOR; experiment: Inhibition of mTOR in human MDA-MB-231 cells assessed as reduction in AKT protein level at 0.5 to 2 uM after 24 hrs by Western blot analysis; format: cell-based; details: dose 0.5-2 µM
[5] = target: T1, Serine/threonine-protein kinase mTOR; experiment: Inhibition of mTOR in human MDA-MB-231 cells assessed as reduction in P70S6 protein level at 0.5 to 2 uM after 24 hrs by Western blot analysis; format: cell-based; details: dose 0.5-2 µM
[6] = target: T1, Serine/threonine-protein kinase mTOR; experiment: Inhibition of mTOR in human MDA-MB-468 cells assessed as reduction in P70S6 protein level at 0.5 to 2 uM after 24 hrs by Western blot analysis; format: cell-based; details: dose 0.5-2 µM
[7] = target: T1, Serine/threonine-protein kinase mTOR; experiment: Inhibition of mTOR in human MDA-MB-231 cells assessed as reduction in p-4EBP1(Thr37/46) protein level at 0.5 to 2 uM after 24 hrs by Western blot analysis; format: cell-based; details: dose 0.5-2 µM
[8] = target: T1, Serine/threonine-protein kinase mTOR; experiment: Inhibition of mTOR in human MDA-MB-468 cells assessed as reduction in p-4EBP1(Thr37/46) protein level at 0.5 to 2 uM after 24 hrs by Western blot analysis; format: cell-based; details: dose 0.5-2 µM
MDA-MB-468 [9] = experiment: Antiproliferative activity against human MDA-MB-468 cells measured after 24 hrs by Hoechst 33258 dye based fluorescence microscopic analysis; format: functional, cell-based; details: dose 2.5-10 µM
MDA-MB-231 [10] = experiment: Induction of apoptosis in human MDA-MB-231 cells assessed as viable cells at 2.5 uM after 24 hrs by AnnexinV-FITC/PI staining based flow cytometry analysis (reference value: 96.45%); format: functional; details: read-out: Activity
MDA-MB-231 [11] = experiment: Induction of apoptosis in human MDA-MB-231 cells assessed as early apoptotic cells at 2.5 uM after 24 hrs by AnnexinV-FITC/PI staining based flow cytometry analysis (reference value: 2.63%); format: functional
MDA-MB-231 [12] = experiment: Induction of apoptosis in human MDA-MB-231 cells assessed as late apoptotic cells at 2.5 uM after 24 hrs by AnnexinV-FITC/PI staining based flow cytometry analysis (reference value: 0.84%); format: functional
MDA-MB-231 [13] = experiment: Induction of apoptosis in human MDA-MB-231 cells assessed as early apoptotic cells at 5 uM after 24 hrs by AnnexinV-FITC/PI staining based flow cytometry analysis (reference value: 2.63%); format: functional
MDA-MB-231 [14] = experiment: Induction of apoptosis in human MDA-MB-231 cells assessed as early apoptotic cells at 10 uM after 24 hrs by AnnexinV-FITC/PI staining based flow cytometry analysis (reference value: 2.43 to 2.63%); format: functional
MDA-MB-468 [15] = experiment: Induction of apoptosis in human MDA-MB-468 cells assessed as necrotic cells at 2.5 uM after 24 hrs by AnnexinV-FITC/PI staining based flow cytometry analysis (reference value: 1.56%); format: functional
MDA-MB-468 [16] = experiment: Induction of apoptosis in human MDA-MB-468 cells assessed as viable cells at 5 uM after 24 hrs by AnnexinV-FITC/PI staining based flow cytometry analysis (reference value: 95.1%); format: functional; details: read-out: Activity
MDA-MB-468 [17] = experiment: Induction of apoptosis in human MDA-MB-468 cells assessed as early apoptic cells at 5 uM after 24 hrs by AnnexinV-FITC/PI staining based flow cytometry analysis (reference value: 0.51%); format: functional
MDA-MB-468 [18] = experiment: Induction of apoptosis in human MDA-MB-468 cells assessed as late apoptic cells at 5 uM after 24 hrs by AnnexinV-FITC/PI staining based flow cytometry analysis (reference value: 2.84%); format: functional
MDA-MB-468 [19] = experiment: Induction of apoptosis in human MDA-MB-468 cells assessed as viable cells at 10 uM after 24 hrs by AnnexinV-FITC/PI staining based flow cytometry analysis (reference value: 95.1 to 96.3%); format: functional; details: read-out: Activity
MDA-MB-468 [20] = experiment: Induction of apoptosis in human MDA-MB-468 cells assessed as necrotic cells at 10 uM after 24 hrs by AnnexinV-FITC/PI staining based flow cytometry analysis (reference value: 1.56%); format: functional
MDA-MB-231 [21] = experiment: Induction of apoptosis in human MDA-MB-231 cells assessed as increase in cleaved caspase 3 level at 2.5 to 10 uM incubated for 24 hrs by western blot analysis; format: functional, cell-based; details: dose 2.5-10 µM
MDA-MB-468 [22] = experiment: Induction of apoptosis in human MDA-MB-468 cells assessed as decrease in Bcl2 level at 2.5 to 10 uM incubated for 24 hrs by western blot analysis; format: functional, cell-based; details: dose 2.5-10 µM
MDA-MB-231 [23] = experiment: Induction of autophagy in human MDA-MB-231 cells assessed as increase in LC3-II protein level at 2.5 to 10 uM incubated for 24 hrs by Western blot analysis; format: functional, cell-based; details: dose 2.5-10 µM
MDA-MB-468 [24] = experiment: Induction of autophagy in human MDA-MB-468 cells assessed as increase in LC3-II protein level at 2.5 to 10 uM incubated for 24 hrs by Western blot analysis; format: functional, cell-based; details: dose 2.5-10 µM
MDA-MB-231 [25] = experiment: Antiproliferative activity against human MDA-MB-231 cells assessed as inhibition of cell viability at 5 uM preincubated with autophagy inhibitor, 3-methyladenine for 1 hr followed by compound addition and measured after 24 hrs by MTT assay; format: functional, cell-based
MDA-MB-468 [26] = experiment: Antiproliferative activity against human MDA-MB-468 cells assessed as inhibition of cell viability at 5 uM preincubated with autophagy inhibitor, 3-methyladenine for 1 hr followed by compound addition and measured after 24 hrs by MTT assay; format: functional, cell-based
MDA-MB-231 [27] = experiment: Inhibition of colony formation in human MDA-MB-231 cells at 10 uM incubated for 14 days in presence of autophagy inhibitor, 3-methyladenine by crystal violet staining based analysis; format: functional, cell-based; details: time 14.0 day
MDA-MB-468 [28] = experiment: Inhibition of colony formation in human MDA-MB-468 cells at 10 uM incubated for 14 days in presence of autophagy inhibitor, 3-methyladenine by crystal violet staining based analysis; format: functional, cell-based; details: time 14.0 day
MDA-MB-231 [29] = experiment: (§1) Induction of apoptosis in human MDA-MB-231 cells assessed as early apoptotic cells at 10 uM pretreated with autophagy inhibitor, 3-methyladenine for 1 hr followed by incubation with compound and measured after 24 hrs by Annexin V-FITC/propidium iodide staining based flow cytometry (reference value: 3.81%); format: functional; set-up: scale not given: the % may be the effect or the level left
MDA-MB-468 [30] = experiment: as §1, with “MDA-MB-468” for “MDA-MB-231”, “pretreated for 1 hr” for “pretreated”, “3-methyladenine” for “3-methyladenine for 1 hr”, “4.08%)” for “3.81%)”; format: functional; set-up: scale not given: the % may be the effect or the level left
MDA-MB-468 [31] = experiment: as §1, with “MDA-MB-468” for “MDA-MB-231”, “late” for “early”, “pretreated for 1 hr” for “pretreated”, “3-methyladenine” for “3-methyladenine for 1 hr”, “1.94%)” for “3.81%)”; format: functional; set-up: scale not given: the % may be the effect or the level left
MDA-MB-231 [32] = experiment: Induction of apoptosis in human MDA-MB-231 cells assessed as viable cells at 10 uM pretreated with autophagy inhibitor, 3-methyladenine for 1 hr followed by incubation with compound and measured after 24 hrs by Annexin V-FITC/propidium iodide staining based flow cytometry (reference value: 92.7%); format: functional; details: read-out: Activity
A549 = experiment: cells; details: Homo sapiens, A549, 24 h
Description: Antiproliferative activity against human A549 cells assessed as reduction in cell viability incubated for 24 hrs by MTT assay

MDA-MB-468 [33] = experiment: cells; details: Homo sapiens, MDA-MB-468, 24 h
Description: Antiproliferative activity against human MDA-MB-468 cells assessed as reduction in cell viability incubated for 24 hrs by MTT assay

IC50 [1]: 0.304 µM
inhibition [2]: Active
inhibition [3]: Active
inhibition [4]: Active
inhibition [5]: Active
inhibition [6]: Active
inhibition [7]: Active
inhibition [8]: Active
IC50 (A549): 6.48 µM
IC50 (MDA-MB-468 [33]): 4.3 µM
SMILES: C/C(=N\NC(=O)c1cccc(Br)c1)c1ccc(C(=O)Nc2nc3ccccc3[nH]2)cc1
Activity (MDA-MB-468 [9]): Dose-Dependent Effect
viability at 2.5 µM (MDA-MB-231 [10]): 90.1%
Activity (MDA-MB-231 [11]): 6.84%
Activity (MDA-MB-231 [12]): 2.96%
Activity (MDA-MB-231 [13]): 10.5%
Activity (MDA-MB-231 [14]): 12.9%
Activity (MDA-MB-468 [15]): 1.89%
viability at 5 µM (MDA-MB-468 [16]): 86.2%
Activity (MDA-MB-468 [17]): 5.57%
Activity (MDA-MB-468 [18]): 5.16%
viability at 10 µM (MDA-MB-468 [19]): 60.5%
Activity (MDA-MB-468 [20]): 1.24%
Activity (MDA-MB-231 [21]): Active
Activity (MDA-MB-468 [22]): Active
Activity (MDA-MB-231 [23]): Active
Activity (MDA-MB-468 [24]): Active
Activity (MDA-MB-231 [25]): Active
Activity (MDA-MB-468 [26]): Active
inhibition (MDA-MB-231 [27]): Active
inhibition (MDA-MB-468 [28]): Active
Activity (MDA-MB-231 [29]): 6.1%
Activity (MDA-MB-468 [30]): 7.07%
Activity (MDA-MB-468 [31]): 8.98%
viability at 10 µM (MDA-MB-231 [32]): 86.3%
